Earlier results as cited in US20150079169A1 (POZEN INC., priority 2011, published 2015).
Each block holds one compound with its values, some of them ahead of it.

Tests used:
[1] = for major cardiovascular events (ischaemic stroke, MI, or vascular death), average rate per year: 19,185 people with history of MI, stroke, or peripheral arterial disease, clopidogrel 75 mg daily versus aspirin 325 mg daily
[2] = clopidogrel therapy
[3] = oral dose of 14C-labeled clopidogrel in humans, five days after dosing
[4] = repeated oral doses of 75 mg clopidogrel (base)

Structure (SMILES): CC(=O)Oc1ccccc1C(=O)O [aspirin]
major cardiovascular events (ischaemic stroke, MI, or vascular death), average rate per year [1]: 6% | reduction of incidence of non-fatal myocardial infarction, non-fatal stroke and vascular death ([1]; people with known vascular disease): about a quarter

Structure (SMILES): O=C(O)[C@H](c1ccccc1Cl)N1CCc2sccc2C1 [main circulating metabolite]
reversible binding in vitro to human plasma proteins (human plasma proteins): 94%

effect of administration with meals on bioavailability of clopidogrel (assessed by pharmacokinetics of the main circulating metabolite): did not significantly modify
Structure (SMILES): COC(=O)[C@H](c1ccccc1Cl)N1CCc2sccc2C1 [clopidogrel bisulfate]

reversible binding in vitro to human plasma proteins (human plasma proteins): 98% | Absorption (based on urinary excretion of clopidogrel-related metabolites): at least 50% | elimination half-life of the active metabolite (in vivo): about eight hours | time of peak plasma levels (in vivo): 30 to 60 min | excreted in the feces [3]: approximately 46% | excreted in the urine [3]: approximately 50% | plasma concentrations of the parent compound (below the quantification limit) (repeated 75 mg oral doses, beyond two hours after dosing): < 0.258 ng/mL | peak plasma levels of the main circulating metabolite [4]: approx. 3 mg/L | time of peak plasma levels of the main circulating metabolite [4]: approximately one hour after dosing
Structure (SMILES): COC(=O)[C@H](c1ccccc1Cl)N1CCc2sccc2C1 [clopidogrel]
RRR of major cardiovascular events versus aspirin ([1]; 95% CI 0.30% to 16.5%, P=0.04): 8.7% | OR for cardiovascular events compared with aspirin ([1]; 95% CI 0.84 to 0.98): 0.91 | major cardiovascular events (ischaemic stroke, MI, or vascular death), average rate per year [1]: 5% | greater risk for major adverse cardiovascular events in patients with CYP2C19 variants ([1]; patients with variants in cytochrome P-450 2C19): 3.58 fold | incidence of gastrointestinal hemorrhage [2]: 2.0 % annually
